# From US12491514B2, “Device, system, and method for trapping tissue samples” (University of Washington, priority 2019, dated 2025)
# Experiments:
# U87 glioma cuboids = assay: Drug treatment of U87 glioma cuboids on the microfluidic device, SYTOX green/Hoechst cell death staining; assay type: cell-based; conditions: for cell death response, mean fluorescence ratio SG dead nuclear to Hoechst pan-nuclear: 2 days (day 1 to day 3), U87 cuboids in device
# Procedure: U87 cuboids were cultured in collagen hydrogel. We prepared 80% collagen (Corning rat tail collagen type 1, 354236, 3-4 mg/mL), 10% 10×PBS, and 10% serum-free medium. We then used filtered-sterilized 1M NaOH to neutralize the pH to ˜7.2. For culture in 6 well plates, cuboids were cultured in 1 mL collagen on top of a 0.4 μm filter Transwell PFTE membrane insert (PICMORG50, Millipore) with 1.3 mL culture medium placed below. Cuboids were cultured both with and without an additional layer of pre-gelled 1 mL collagen below with similar histology and staining observed, apart from a relatively flatter shape often seen without the extra collagen layer. The culture medium contained Neurobas al-A medium (Invitrogen) with 25% heat-inactivated horse serum (Sigma), Glutamax (Invitrogen), 2× penicillin/streptomycin (Invitrogen), and growth factors (EGF 20 ng/mL and FGF 20 ng/mL, Preprotech or Invitrogen). Cisplatin (3 mM stock in dH2O, MedChem Express) was diluted in cell culture medium for the drug treatment experiment. Liver cuboids were cultured in 1 mL of collagen hydrogel on a Millipore insert with constant shaking. Culture medium was William's Medium (with L-glutamine, Invitrogen, Scotland) supplemented with 25 mM glucose (Sigma-Aldrich, USA), 30 nM insulin (ITS+premix, Zen-Bio, Inc., USA), 1 nM EGF (Preprotech), 5% Pen Strep (Sigma-Aldrich, USA), 100 nM glucagon (Sigma-Aldrich, USA). Live U87 glioma cuboids were stained for 1 hour, 37° C., with the following dyes (individually or in combination) diluted in culture medium: Cell Tracker Green CMFDA (Invitrogen, 10 μM), Cell Tracker Orange CMRA (Invitrogen, 10 μM), Hoechst (H; Invitrogen, 16 μM), and/or SYTOX green (SG; Invitrogen, 0.01 μM). […] Mean SG fluorescence was normalized to the average value of untreated cuboids. […] As a straightforward simple measure of cell viability, we measured the mean fluorescence ratio in epifluorescence images of SG dead nuclear fluorescence to Hoechst pan-nuclear fluorescence (FIG. 12B). […]
# U87 glioma slices = assay: Previous experiments with U87 glioma slices on and off a microfluidic device, SG/H live viability staining; assay type: cell-based; conditions: 30 and 100 μM
compound,measurement,setting,value
N.N.[Cl][Pt][Cl] [cisplatin],"cell death response, mean fluorescence ratio SG dead nuclear to Hoechst pan-nuclear",U87 glioma cuboids; 30 μM,statistically significant response
same,mean increase of SG (SYTOX green dead stain) fluorescence normalized to the mean,"U87 glioma cuboids; 100 μM, 2-day maximal drug treatment, used as threshold for death",1.4
same,"cell death response, mean fluorescence ratio SG dead nuclear to Hoechst pan-nuclear",U87 glioma cuboids; 100 μM,showing a trend
same,response by SG/H live viability staining,U87 glioma slices,cell death
